Test results as given in patent US12655125B2 (SIRONAX LTD., priority 2020, dated 2026).

test system: HT-29 cells; test: HT29 Cells 0FBS Assay In Vitro (TNF-α/SMAC mimetic/zVAD-FMK induced necroptosis, CellTiter-Glo cell viability); assay type: cell-based; conditions: Homo sapiens; HT-29 cells, FBS free medium, TNF-α (10 ng/ml), SMAC mimetic (6 uM), zVAD-FMK (10 μM), 20 hours; geometric mean EC50; read-out: Cell activity (EC50) of Compounds 117-281
In short: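 HT-29 cells (5,000/well, seeded overnight) in serum-free McCoy's 5A were stimulated with TNF-α 10 ng/ml, SMAC mimetic 6 μM and zVAD-FMK 10 μM to induce necroptosis. Compound added as 10-point 3-fold series for 20 h at 37° C. CellTiter-Glo luminescence gives viability; EC50 is geometric mean of duplicate dose-responses.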

Q: How did the EC50 turn out when `Cc1nn(-c2cc(OC3CN(C(=O)N4N=CC[C@H]4c4cc(F)cc(F)c4)C3)c(F)cn2)c(C)c1C(=O)N(C)C` [compound 192, (S)-1-(4-((1-(5-(3,5-difluorophenyl)-4,5-dihydro-1H-pyrazole-1-carbonyl)azetidin-3-yl)oxy)-5-fluoropyridin-2-yl)-N,N,3,5-tetramethyl-1H-pyrazole-4-carboxamide] was run?
A: 0.1 to 100 nM

Q: How did the EC50 turn out when `CNC(=O)c1c(C)nn(-c2cc(OC3CN(C(=O)N4N=CC[C@H]4c4cc(F)cc(F)c4)C3)c(F)cn2)c1C` [compound 193, (S)-1-(4-((1-(5-(3,5-difluorophenyl)-4,5-dihydro-1H-pyrazole-1-carbonyl)azetidin-3-yl)oxy)-5-fluoropyridin-2-yl)-N,3,5-trimethyl-1H-pyrazole-4-carboxamide] was run?
A: 0.1 to 100 nM

Q: For `Cc1nn(-c2cc(OC3CN(C(=O)N4N=CC[C@H]4c4cc(F)cc(F)c4)C3)c(F)cn2)c(C)c1C(=O)N1CCCC1` [compound 194, (S)-(5-(3,5-difluorophenyl)-4,5-dihydro-1H-pyrazol-1-yl)(3-((2-(3,5-dimethyl-4-(pyrrolidine-1-carbonyl)-1H-pyrazol-1-yl)-5-fluoropyridin-4-yl)oxy)azetidin-1-yl)methanone], which EC50 is on record?
A: 0.1 to 100 nM

Q: For `Cc1nn(-c2cc(OC3CN(C(=O)N4N=CC[C@H]4c4cc(F)cc(F)c4)C3)c(F)cn2)c(C)c1C(=O)N1CCC1` [compound 195, (S)-azetidin-1-yl(1-(4-((1-(5-(3,5-difluorophenyl)-4,5-dihydro-1H-pyrazole-1-carbonyl)azetidin-3-yl)oxy)-5-fluoropyridin-2-yl)-3,5-dimethyl-1H-pyrazol-4-yl)methanone], which EC50 is on record?
A: 0.1 to 100 nM

Q: Which EC50 does the source give for `Cc1c(C(N)=O)nn(C)c1-c1ccc(F)c(OC2CN(C(=O)N3N=CC[C@H]3c3cc(F)cc(F)c3)C2)n1` [compound 196, (S)-5-(6-((1-(5-(3,5-difluorophenyl)-4,5-dihydro-1H-pyrazole-1-carbonyl)azetidin-3-yl)oxy)-5-fluoropyridin-2-yl)-1,4-dimethyl-1H-pyrazole-3-carboxamide] here?
A: 0.1 to 100 nM

Q: Which EC50 does the source give for `Cc1cnn(C)c1-c1ccc(F)c(OC2CN(C(=O)N3N=CC[C@H]3c3cc(F)cc(F)c3)C2)c1` [compound 197, (S)-(5-(3,5-difluorophenyl)-4,5-dihydro-1H-pyrazol-1-yl)(3-(5-(1,4-dimethyl-1H-pyrazol-5-yl)-2-fluorophenoxy)azetidin-1-yl)methanone] here?
A: 0.1 to 100 nM

Q: For `Cc1n[nH]c(C)c1-c1ccc(F)c(OC2CN(C(=O)N3N=CC[C@H]3c3cc(F)cc(F)c3)C2)c1` [compound 198, (S)-(5-(3,5-difluorophenyl)-4,5-dihydro-1H-pyrazol-1-yl)(3-(5-(3,5-dimethyl-1H-pyrazol-4-yl)-2-fluorophenoxy)azetidin-1-yl)methanone], which EC50 is on record?
A: 0.1 to 100 nM

Q: How did the EC50 turn out when `Cc1nc(C#N)c(C)n1-c1cc(OC2CN(C(=O)N3N=CC[C@H]3c3cc(F)cc(F)c3)C2)c(F)cn1` [compound 199, (S)-1-(4-((1-(5-(3,5-difluorophenyl)-4,5-dihydro-1H-pyrazole-1-carbonyl)azetidin-3-yl)oxy)-5-fluoropyridin-2-yl)-2,5-dimethyl-1H-imidazole-4-carbonitrile] was run?
A: 0.1 to 100 nM

Q: With `Cc1nc(C(N)=O)c(C)n1-c1cc(OC2CN(C(=O)N3N=CC[C@H]3c3cc(F)cc(F)c3)C2)c(F)cn1` [compound 200, (S)-1-(4-((1-(5-(3,5-difluorophenyl)-4,5-dihydro-1H-pyrazole-1-carbonyl)azetidin-3-yl)oxy)-5-fluoropyridin-2-yl)-2,5-dimethyl-1H-imidazole-4-carboxamide] as the compound, how does the EC50 read?
A: 0.1 to 100 nM

Q: How did the EC50 turn out when `Cn1nc(CF)nc1-c1cc(OC2CN(C(=O)N3N=CC[C@H]3c3cc(F)cc(F)c3)C2)c(F)cn1` [compound 201, (S)-(5-(3,5-difluorophenyl)-4,5-dihydro-1H-pyrazol-1-yl)(3-((5-fluoro-2-(3-(fluoromethyl)-1-methyl-1H-1,2,4-triazol-5-yl)pyridin-4-yl)oxy)azetidin-1-yl)methanone] was run?
A: 0.1 to 100 nM

Q: How did the EC50 turn out when `Cn1nc(CO)nc1-c1cc(OC2CN(C(=O)N3N=CC[C@H]3c3cc(F)cc(F)c3)C2)c(F)cn1` [compound 202, (S)-(5-(3,5-difluorophenyl)-4,5-dihydro-1H-pyrazol-1-yl)(3-((5-fluoro-2-(3-(hydroxymethyl)-1-methyl-1H-1,2,4-triazol-5-yl)pyridin-4-yl)oxy)azetidin-1-yl)methanone] was run?
A: 0.1 to 100 nM

Q: With `CSc1c(C)nn(-c2cc(OC3CN(C(=O)N4N=CC[C@H]4c4cc(F)cc(F)c4)C3)c(F)cn2)c1C` [compound 203, (S)-(5-(3,5-difluorophenyl)-4,5-dihydro-1H-pyrazol-1-yl)(3-((2-(3,5-dimethyl-4-(methylthio)-1H-pyrazol-1-yl)-5-fluoropyridin-4-yl)oxy)azetidin-1-yl)methanone] as the compound, how does the EC50 read?
A: 0.1 to 100 nM

Q: For `Cc1nn(-c2cc(OC3CN(C(=O)N4N=CC[C@H]4c4cc(F)cc(F)c4)C3)c(F)cn2)c(C)c1[S+](C)[O-]` (stereo partly drawn) [compound 204, ((S)-5-(3,5-difluorophenyl)-4,5-dihydro-1H-pyrazol-1-yl)(3-((2-(3,5-dimethyl-4-(methylsulfinyl)-1H-pyrazol-1-yl)-5-fluoropyridin-4-yl)oxy)azetidin-1-yl)methanone], which EC50 is on record?
A: 0.1 to 100 nM

Q: For `Cc1n[nH]c(N)c1-c1cc(OC2CN(C(=O)N3N=CC[C@H]3c3cc(F)cc(F)c3)C2)c(F)cn1` [compound 205, (S)-(3-((2-(5-amino-3-methyl-1H-pyrazol-4-yl)-5-fluoropyridin-4-yl)oxy)azetidin-1-yl)(5-(3,5-difluorophenyl)-4,5-dihydro-1H-pyrazol-1-yl)methanone], which EC50 is on record?
A: 0.1 to 100 nM

Q: How did the EC50 turn out when `Cc1c(-c2cc(OC3CN(C(=O)N4N=CC[C@H]4c4cc(F)cc(F)c4)C3)c(F)cn2)c(C)n(C)c1N` [compound 206, (S)-(3-((2-(5-amino-1,2,4-trimethyl-1H-pyrrol-3-yl)-5-fluoropyridin-4-yl)oxy)azetidin-1-yl)(5-(3,5-difluorophenyl)-4,5-dihydro-1H-pyrazol-1-yl)methanone] was run?
A: 0.1 to 100 nM

Q: How did the EC50 turn out when `Cc1c(N)nn(C)c1-c1ncc(F)c(OC2CN(C(=O)N3N=CC[C@H]3c3cc(F)cc(F)c3)C2)n1` [compound 207, (S)-(3-((2-(3-amino-1,4-dimethyl-1H-pyrazol-5-yl)-5-fluoropyrimidin-4-yl)oxy)azetidin-1-yl)(5-(3,5-difluorophenyl)-4,5-dihydro-1H-pyrazol-1-yl)methanone] was run?
A: 0.1 to 100 nM

Q: For `Cc1cnn(C)c1-c1cnc(F)c(OC2CN(C(=O)N3N=CC[C@H]3c3cc(F)cc(F)c3)C2)c1` [compound 208, (S)-(5-(3,5-difluorophenyl)-4,5-dihydro-1H-pyrazol-1-yl)(3-((5-(1,4-dimethyl-1H-pyrazol-5-yl)-2-fluoropyridin-3-yl)oxy)azetidin-1-yl)methanone], which EC50 is on record?
A: 0.1 to 100 nM

Q: Which EC50 does the source give for `Cc1nn(C)c(-c2cc(OC3CN(C(=O)N4N=CC[C@H]4c4cc(F)cc(F)c4)C3)c(F)cn2)c1N` [compound 209, (S)-(3-((2-(4-amino-1,3-dimethyl-1H-pyrazol-5-yl)-5-fluoropyridin-4-yl)oxy)azetidin-1-yl)(5-(3,5-difluorophenyl)-4,5-dihydro-1H-pyrazol-1-yl)methanone] here?
A: 0.1 to 100 nM

Q: With `Cc1nn(C)c(N)c1-c1cc(OC2CN(C(=O)N3N=CC[C@H]3c3cc(F)cc(F)c3)C2)c(F)cn1` [compound 210, (S)-(3-((2-(5-amino-1,3-dimethyl-11H-pyrazol-4-yl)-5-fluoropyridin-4-yl)oxy)azetidin-1-yl)(5-(3,5-difluorophenyl)-4,5-dihydro-1H-pyrazol-1-yl)methanone] as the compound, how does the EC50 read?
A: 0.1 to 100 nM

Q: With `Cc1c(CN)nn(C)c1-c1cc(OC2CN(C(=O)N3N=CC[C@H]3c3cc(F)cc(F)c3)C2)c(F)cn1` [compound 211, (S)-(3-((2-(3-(aminomethyl)-1,4-dimethyl-11H-pyrazol-5-yl)-5-fluoropyridin-4-yl)oxy)azetidin-1-yl)(5-(3,5-difluorophenyl)-4,5-dihydro-1H-pyrazol-1-yl)methanone] as the compound, how does the EC50 read?
A: 0.1 to 100 nM

Q: `Cc1c(NCCO)nn(C)c1-c1cc(OC2CN(C(=O)N3N=CC[C@H]3c3cc(F)cc(F)c3)C2)c(F)cn1` [compound 212, (S)-(5-(3,5-difluorophenyl)-4,5-dihydro-1H-pyrazol-1-yl)(3-((5-fluoro-2-(3-((2-hydroxyethyl)amino)-1,4-dimethyl-1H-pyrazol-5-yl)pyridin-4-yl)oxy)azetidin-1-yl)methanone] was tested. Which EC50 did it give?
A: 0.1 to 100 nM

Q: `Cc1c(N2CC(O)C2)nn(C)c1-c1cc(OC2CN(C(=O)N3N=CC[C@H]3c3cc(F)cc(F)c3)C2)c(F)cn1` [compound 213, (S)-(5-(3,5-difluorophenyl)-4,5-dihydro-1H-pyrazol-1-yl)(3-((5-fluoro-2-(3-(3-hydroxyazetidin-1-yl)-1,4-dimethyl-1H-pyrazol-5-yl)pyridin-4-yl)oxy)azetidin-1-yl)methanone] was tested. Which EC50 did it give?
A: 0.1 to 100 nM

Q: Which EC50 does the source give for `Cc1nn(-c2cc(OC3CN(C(=O)N4N=CC[C@H]4c4cc(F)cc(F)c4)C3)c(F)cn2)c(C)c1C(=O)NCCO` [compound 214, (S)-1-(4-((1-(5-(3,5-difluorophenyl)-4,5-dihydro-1H-pyrazole-1-carbonyl)azetidin-3-yl)oxy)-5-fluoropyridin-2-yl)-N-(2-hydroxyethyl)-3,5-dimethyl-1H-pyrazole-4-carboxamide] here?
A: 0.1 to 100 nM

Q: How did the EC50 turn out when `Cc1c(N)nn(C)c1-c1ccc(F)c(OC2CN(C(=O)N3N=CC[C@H]3c3cc(F)cc(F)c3)C2)n1` [compound 215, (S)-(3-((6-(3-amino-1,4-dimethyl-1H-pyrazol-5-yl)-3-fluoropyridin-2-yl)oxy)azetidin-1-yl)(5-(3,5-difluorophenyl)-4,5-dihydro-1H-pyrazol-1-yl)methanone] was run?
A: 0.1 to 100 nM

Q: How did the EC50 turn out when `Cc1nn(-c2cc(OC3CN(C(=O)N4N=CC[C@H]4c4cc(F)cc(F)c4)C3)c(F)cn2)c(C)c1C(=O)NC1CCOCC1` [compound 216, (S)-1-(4-((1-(5-(3,5-difluorophenyl)-4,5-dihydro-1H-pyrazole-1-carbonyl)azetidin-3-yl)oxy)-5-fluoropyridin-2-yl)-3,5-dimethyl-N-(tetrahydro-2H-pyran-4-yl)-1H-pyrazole-4-carboxamide] was run?
A: 0.1 to 100 nM
